Source: patent US9499550B2 (BRISTOL-MYERS SQUIBB COMPANY, priority 2012, dated 2016)
Where two headings read alike, the source gives them in different places.

Assays:
[1] = tested on: HCV genotype 1a (H77 strain) replicon in HUH-7 cells; assay: HCV replicon luciferase reporter assay, genotype 1a; format: cell-based; conditions: Hepatitis C virus, Huh-7, 72 h, HCV genotype 1a replicon luciferase, 3 days incubation
Method in brief: (§1)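 Replicon inhibition for both genotypes was measured as Renilla luciferase signal (EnduRen, 7.5 μM final, 2 h) after 3-day, 37° C exposure of replicon-bearing HUH-7 cells in 4% FCS DMEM, 0.5% DMSO. The 1b construct carries S1179I; the 1a H77 construct carries P1496L and S2204I. Twenty-point, 3-fold dilutions were fitted four-parametrically for EC50, and CC50 was taken from multiplexed Cell Titer-Blue.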

[2] = tested on: HCV genotype 1b (Con1) replicon in HUH-7 cells; assay: HCV replicon luciferase reporter assay, genotype 1b; format: cell-based; conditions: Hepatitis C virus, Huh-7, 72 h, HCV genotype 1b replicon luciferase, 3 days incubation
Method in brief: as §1

[3] = GETYPE1A, read-out: LE_1a (EC50, range)
[4] = GETYPE1B, read-out: LE_1b (EC50, range)

Row | Compound | EC50 ([1]; read-out: LE_1a (EC50, range)) [nM] | EC50 ([2]; read-out: LE_1b (EC50, range)) [nM] | EC50 [1, 3] [nM] | EC50 [2, 4] [nM] | EC50 ([1]; GETYPE1A, read-out: LE_1a (EC50)) [nM] | EC50 ([2]; GETYPE1B, read-out: LE_1b (EC50)) [nM]
1 | CCOc1cnc(O[C@@H]2C[C@H]3C(=O)N[C@]4(C(=O)NS(=O)(=O)C5CC5)C[C@H]4/C=C\CC[C@@H](C)C[C@@H](C)[C@H](NC(=O)OC(C)(C)C)C(=O)N3C2)c2cc(F)ccc12 [Compound 4061, tert-butyl (2R,6S,7R,9R,13aS,14aR,16aS,Z)-14a-(cyclopropylsulfonylcarbamoyl)-2-(4-ethoxy-7-fluoroisoquinolin-1-yloxy)-7,9-dimethyl-5,16-dioxo-1,2,3,5,6,7,8,9,10,11,13a,14,14a,15,16,16a-hexadecahydrocyclopropa[e]pyrrolo[1,2-a][1,4]diazacyclopentadecin-6-ylcarbamate] | < 5.46 | < 5.46 |  |  |  | 
2 | COc1ccc2nc(O[C@@H]3C[C@H]4C(=O)N[C@]5(C(=O)NS(=O)(=O)C6(CF)CC6)C[C@H]5/C=C\CC[C@@H](C)C[C@@H](C)[C@H](NC(=O)OC(C)(C)C(F)(F)F)C(=O)N4C3)c(C)nc2c1 [Compound 4107] |  |  | < 5.46 | < 5.46 |  | 
3 | C[C@@H]1CC/C=C\[C@@H]2C[C@@]2(C(=O)NS(=O)(=O)C2(C)CC2)NC(=O)[C@@H]2C[C@@H](Oc3ncc(N4CCOCC4)c4ccccc34)CN2C(=O)[C@@H](NC(=O)OC(C)(C)C)[C@H](C)C1 [Compound 5421, tert-butyl ((2R,6S,7R,9R,13aS,14aR,16aS,Z)-7,9-dimethyl-14a-(((1-methylcyclopropyl)sulfonyl)carbamoyl)-2-((4-morpholinoisoquinolin-1-yl)oxy)-5,16-dioxo-1,2,3,5,6,7,8,9,10,11,13a,14,14a,15,16,16a-hexadecahydrocyclopropa[e]pyrrolo[1,2-a][1,4]diazacyclopentadecin-6-yl)carbamate] | 1.01 to 5 | 0.51 to 1 |  |  |  | 
4 | CC[C@@H]1C[C@H](C)CC/C=C\[C@@H]2C[C@@]2(C(=O)NS(=O)(=O)C2(C)CC2)NC(=O)[C@@H]2C[C@@H](Oc3cc(OC)nc4cc(OC)ccc34)CN2C(=O)[C@H]1NC(=O)OC(C)(C)C(F)(F)F [Compound 1209] |  |  | 5.01 to 35 | 1.01 to 5 | 5.66 | 2
5 | CC[C@@H]1C[C@H](C)CC/C=C\[C@@H]2C[C@@]2(C(=O)NS(=O)(=O)C2(CF)CC2)NC(=O)[C@@H]2C[C@@H](Oc3nccc4c5c(ccc34)N(C)CCO5)CN2C(=O)[C@H]1NC(=O)OC(C)(C)C(F)(F)F [Compound 5465, 1,1,1-trifluoro-2-methylpropan-2-yl((2R,6S,7R,9R,13aS,14aR,16aS,Z)-7-ethyl-14a-(((1-(fluoromethyl)cyclopropyl)sulfonyl)carbamoyl)-9-methyl-2-((4-methyl-3,4-dihydro-2H-[1,4]oxazino[2,3-f]isoquinolin-7-yl)oxy)-5,16-dioxo-1,2,3,5,6,7,8,9,10,11,13a,14,14a,15,16,16a-hexadecahydrocyclopropa[e]pyrrolo[1,2-a][1,4]diazacyclopentadecin-6-yl)carbamate] | 1.01 to 5 | 1.01 to 5 |  |  |  | 
6 | CCOc1nnc(O[C@@H]2C[C@H]3C(=O)N[C@]4(C(=O)NS(=O)(=O)C5(C)CC5)C[C@H]4/C=C\CC[C@H](C)C[C@@H](CC)[C@H](NC(=O)OC(C)(C)C(F)(F)F)C(=O)N3C2)c2ccccc12 [Compound 5048, 1,1,1-trifluoro-2-methylpropan-2-yl((2R,6S,7R,9S,13aS,14aR,16aS,Z)-2-((4-ethoxyphthalazin-1-yl)oxy)-7-ethyl-9-methyl-14a-(((1-methylcyclopropyl)sulfonyl)carbamoyl)-5,16-dioxo-1,2,3,5,6,7,8,9,10,11,13a,14,14a,15,16,16a-hexadecahydrocyclopropa[e]pyrrolo[1,2-a][1,4]diazacyclopentadecin-6-yl)carbamate] | 4.82 to 103 | 4.82 to 103 |  |  |  | 
